According to US20260207768A1, “NOVEL LINKER DRUGS COMPRISING PHOSPHOANTIGENS, NOVEL CONJUGATES AND THEIR USE IN THERAPY” (priority 2022, published 2026):

Tests used:
[1] = system: CD20-positive Burkitt's Lymphoma human tumor cell line Raji; assay: Cellular binding to Raji cells (flow cytometry, MFI); conditions: 30 minutes at 4° C.
Method: The CD20-positive Burkitt's Lymphoma human tumor cell line Raji (DSMZ, the German collection of Microorganisms and cell cultures GmbH) was used for in vitro experiments. Raji cells were cultured in complete growth medium (CGM): RPMI-1640 (Lonza) supplemented with 10% Heat-inactivated (HI) Fetal Bovine Serum (FBS) (Gibco) and 80 U/mL Penicillin-Streptomycin solution (Lonza). Raji cells were maintained at 37° C. in a humidified incubator containing 5% CO2 and sub-cultured twice a week. […] Fluorescence intensities were determined by flow cytometry using the NovoCyte (Agilent) and determined as the median fluorescence intensity (MFI). […] EC50 values were calculated in GraphPad Prism as the concentration in μg/mL that gives a response halfway between bottom and top of the curve. […]
These ADCs were tested for their ability to bind Raji cells (using a binding assay, as described in Example 5) and to activate Vdelta2 gammadelta T-cells after overnight incubation with CD20-positive Raji cells. The pretreated Raji cells were cocultured with peripheral blood mononuclear cells (PBMCs) and activation (IFNγ production) and degranulation (CD107a) of Vdelta2 gammadelta T-cells and NK-cells was determined using multicolor flow cytometry, as described for the Functional assay in Example 5.

[2] = system: Vdelta2 gammadelta T-cells; assay: Functional assay: Vdelta2 gammadelta T-cell activation (CD107a, IFNγ) after co-culture of PBMCs with pretreated Raji cells; format: cell-based, human; set-up: key to IFNγ production by Vdelta2 populations, EC50: †: incomplete curve saturation (no EC50 calculation possible); ††: low number of IFNγ-positive cells, no reliable EC50 calculation possible; conditions: Donor two; Raji cells pre-treated overnight, 6 hours coculture with PBMCs
Method: Multiple synthesized linker drug compounds were conjugated to rituximab (anti-CD20) and resulting ADCs were tested for their ability to bind Raji cells and to activate Vdelta2 gammadelta T-cells after overnight incubation with CD20-positive Raji cells. The linker drug compounds that were conjugated to rituximab, and resulting ADCs, are within the list reflected in Table 1. The pretreated Raji cells were cocultured with peripheral blood mononuclear cells (PBMCs) and activation (IFNγ production) and degranulation (CD107a) of Vdelta2 gammadelta T-cells and NK-cells was determined using multicolor flow cytometry.
For stimulation with ADCs according to the invention, Raji cells were harvested, diluted to a concentration of 5×10^6 cells/mL and 50 μL (equivalent to 250,000 cells/well) of this cell suspension was seeded into a 96-well plate. […] The recovered PBMCs were harvested, counted and diluted to a concentration of 10×10^6 cells/mL in CGM, and 50 μL/well (equivalent to 0.5×10^6 cells/well) was added to the Raji cells. […]

NK-cells = conditions: shown in WO2023/275025; cited from earlier work

EC50 binding to Raji cells [1]: 3.30 mg/L
CD107a production by Vdelta2 populations, EC50 [2]: 0.094 mg/L
IFNγ production by Vdelta2 populations, EC50 [2]: ††
Substance: Rituximab: anti-CD20 antibody rituximab [reference compound]
Activation of NK-cells (in words) (NK-cells): induced activation of NK-cells
